Assay results published in the NIST ThermoML archive (doi:10.1016/j.jct.2014.07.019).
Numbers after ± are expanded uncertainties.

Tests used:
[1] = 100 kPa, Liquid; for speed of sound: Frequency=3 MHz, Sing-around technique in a fixed-path interferometer; for mass density: Vibrating tube method
[2] = xn = mol fraction of the nth substance listed; settings: 100 kPa, Liquid, x2 = 0; for speed of sound: Frequency=3 MHz, Sing-around technique in a fixed-path interferometer; for mass density: Vibrating tube method

SMILES	speed of sound ([1]; 293.15 K) [m/s]	mass density ([1]; 293.15 K) [kg/m3]	speed of sound ([1]; 298.15 K) [m/s]	mass density ([1]; 298.15 K) [kg/m3]	speed of sound ([1]; 303.15 K) [m/s]	mass density ([1]; 303.15 K) [kg/m3]	speed of sound ([1]; 308.15 K) [m/s]	mass density ([1]; 308.15 K) [kg/m3]	speed of sound ([1]; 313.15 K) [m/s]	mass density ([1]; 313.15 K) [kg/m3]	speed of sound ([2]; 293.15 K) [m/s]	mass density ([2]; 293.15 K) [kg/m3]	speed of sound ([2]; 298.15 K) [m/s]	mass density ([2]; 298.15 K) [kg/m3]	speed of sound ([2]; 303.15 K) [m/s]	mass density ([2]; 303.15 K) [kg/m3]	speed of sound ([2]; 308.15 K) [m/s]	mass density ([2]; 308.15 K) [kg/m3]	speed of sound ([2]; 313.15 K) [m/s]	mass density ([2]; 313.15 K) [kg/m3]
CCCCOCC(C)O (stereo not given) [1-butoxy-2-propanol]	1279 ± 1.3	879.031 ± 0.15	1260.9 ± 1.3	874.632 ± 0.15	1242.9 ± 1.3	870.204 ± 0.15	1224.9 ± 1.3	865.737 ± 0.15	1207 ± 1.3	861.241 ± 0.15										
CCCCO [butan-1-ol]	1257.5 ± 1.2	809.807 ± 0.15	1240.6 ± 1.2	805.986 ± 0.15	1223.7 ± 1.2	802.139 ± 0.15	1207 ± 1.2	798.261 ± 0.15	1190.5 ± 1.2	794.385 ± 0.15										
CCCCO [butan-1-ol] + CCCCOCC(C)O											1257.5 ± 1.2	809.807 ± 0.15	1240.6 ± 1.2	805.986 ± 0.15	1223.7 ± 1.2	802.139 ± 0.15	1207 ± 1.2	798.261 ± 0.15	1190.5 ± 1.2	794.385 ± 0.15
CCC(C)O (stereo not given) [butan-2-ol]	1230.2 ± 1.3	806.679 ± 0.16	1213.3 ± 1.3	802.563 ± 0.16	1197.2 ± 1.2	798.352 ± 0.16	1177 ± 1.2	794.058 ± 0.17	1158.9 ± 1.2	789.668 ± 0.17										

Results, then the molecule that gave them:

speed of sound ([1]; 293.15 K) [m/s]	mass density ([1]; 293.15 K) [kg/m3]	speed of sound ([1]; 298.15 K) [m/s]	mass density ([1]; 298.15 K) [kg/m3]	speed of sound ([1]; 303.15 K) [m/s]	mass density ([1]; 303.15 K) [kg/m3]	speed of sound ([1]; 308.15 K) [m/s]	mass density ([1]; 308.15 K) [kg/m3]	speed of sound ([1]; 313.15 K) [m/s]	mass density ([1]; 313.15 K) [kg/m3]	speed of sound ([2]; 293.15 K) [m/s]	mass density ([2]; 293.15 K) [kg/m3]	speed of sound ([2]; 298.15 K) [m/s]	mass density ([2]; 298.15 K) [kg/m3]	speed of sound ([2]; 303.15 K) [m/s]	mass density ([2]; 303.15 K) [kg/m3]	speed of sound ([2]; 308.15 K) [m/s]	mass density ([2]; 308.15 K) [kg/m3]	speed of sound ([2]; 313.15 K) [m/s]	mass density ([2]; 313.15 K) [kg/m3]	SMILES
										1230.2 ± 1.3	806.679 ± 0.16	1213.3 ± 1.3	802.563 ± 0.16	1197.2 ± 1.2	798.352 ± 0.16	1177 ± 1.2	794.058 ± 0.17	1158.9 ± 1.2	789.668 ± 0.17	CCC(C)O (stereo not given) [butan-2-ol] + CCCCOCC(C)O
1224.2 ± 1.3	804.144 ± 0.16	1207 ± 1.3	800.13 ± 0.16	1189.8 ± 1.2	796.08 ± 0.16	1172.8 ± 1.2	792.001 ± 0.17	1156.2 ± 1.2	787.884 ± 0.17											CCCO [propan-1-ol]
										1224.2 ± 1.3	804.144 ± 0.16	1207 ± 1.3	800.13 ± 0.16	1189.8 ± 1.2	796.08 ± 0.16	1172.8 ± 1.2	792.001 ± 0.17	1156.2 ± 1.2	787.884 ± 0.17	CCCO [propan-1-ol] + CCCCOCC(C)O
1168.5 ± 1.2	785.739 ± 0.15	1148 ± 1.2	781.588 ± 0.15	1132.2 ± 1.2	777.468 ± 0.15	1114.3 ± 1.1	773.151 ± 0.15	1096.2 ± 1.1	768.446 ± 0.15											CC(C)O [propan-2-ol]
										1168.5 ± 1.2	785.739 ± 0.15	1148 ± 1.2	781.588 ± 0.15	1132.2 ± 1.2	777.468 ± 0.15	1114.3 ± 1.1	773.151 ± 0.15	1096.2 ± 1.1	768.446 ± 0.15	CC(C)O [propan-2-ol] + CCCCOCC(C)O
